The numbers were not newly measured in patent US20260048144A1, “SECRETED RNA THERAPEUTICS FOR NUCLEAR DELIVERY” (H. Lee Moffitt Cancer Center and Research Institute, Inc., priority 2022, published 2026), which cites them from elsewhere.

The conditions of data set [1]: tested in humans; Di Stasi et al. 2011.
The conditions of data set [2]: infused in thousands of lymphoma and rheumatoid arthritis patients.

As for `CC[C@H](C(=O)N1CCCC[C@H]1C(=O)O[C@H](CCc1ccc(OC)c(OC)c1)c1cccc(OCC(=O)NCCNC(=O)COc2cccc([C@@H](CCc3ccc(OC)c(OC)c3)OC(=O)[C@@H]3CCCCN3C(=O)[C@@H](CC)c3cc(OC)c(OC)c(OC)c3)c2)c1)c1cc(OC)c(OC)c(OC)c1` [AP1903], the “safety / adverse effects in humans” value in data set [1] is reported as “deemed safe without adverse effects”.

On to Rituximab, for which, in data set [2], the side effect profile result is given as “favorable side effect profile”.
